Results taken from ChEMBL document CHEMBL3046342, “Synthesis of steroidal thiazolidinones as antibacterial agents based on the in vitro and quantum chemistry calculation” (2013).
≈ marks a conversion by molar mass, not a printed value.

Legend:
Type in all cases: functional
Streptococcus pyogenes [1] = assay: Antibacterial activity against Streptococcus pyogenes ATCC 12384 assessed as growth inhibition at 10 to 100 ug/uL after 18 hr by disk diffusion method
Escherichia coli [2] = assay: Antibacterial activity against Escherichia coli ATCC 49696 assessed as growth inhibition at 10 to 100 ug/uL after 18 hr by disk diffusion method
Staphylococcus aureus [3] = assay: Antibacterial activity against Staphylococcus aureus ATCC 13150 assessed as growth inhibition at 10 to 100 ug/uL after 18 hr by disk diffusion method
Salmonella typhimurium [4] = assay: Antibacterial activity against Salmonella enterica subsp. enterica serovar Typhimurium ATCC 13311 assessed as growth inhibition at 10 to 100 ug/uL after 18 hr by disk diffusion method
Salmonella typhimurium [5] = assay: Antibacterial activity against Salmonella enterica subsp. enterica serovar Typhimurium ATCC 13311 assessed as growth inhibition after 18 hr by microbroth dilution method; details: ATCC 13311, 18 h
Escherichia coli [6] = assay: Antibacterial activity against Escherichia coli ATCC 49696 assessed as growth inhibition after 18 hr by microbroth dilution method; details: ATCC 49696, 18 h
Staphylococcus aureus [7] = assay: Antibacterial activity against Staphylococcus aureus ATCC 13150 assessed as growth inhibition after 18 hr by microbroth dilution method; details: ATCC 13150, 18 h
Streptococcus pyogenes [8] = assay: Antibacterial activity against Streptococcus pyogenes ATCC 12384 assessed as growth inhibition after 18 hr by microbroth dilution method; details: ATCC 12384, 18 h
Escherichia coli [9] = assay: Antibacterial activity against Escherichia coli ATCC 49696 assessed as growth inhibition at 30 ug/disk after 18 hr by disk diffusion method; details: ATCC 49696, 18 h, read-out: IZ
Staphylococcus aureus [10] = assay: Antibacterial activity against Staphylococcus aureus ATCC 13150 assessed as growth inhibition at 30 ug/disk after 18 hr by disk diffusion method; details: ATCC 13150, 18 h, read-out: IZ
Salmonella typhimurium [11] = assay: Antibacterial activity against Salmonella enterica subsp. enterica serovar Typhimurium ATCC 13311 assessed as growth inhibition at 30 ug/disk after 18 hr by disk diffusion method; details: ATCC 13311, 18 h, read-out: IZ
Streptococcus pyogenes [12] = assay: Antibacterial activity against Streptococcus pyogenes ATCC 12384 assessed as growth inhibition at 30 ug/disk after 18 hr by disk diffusion method; details: ATCC 12384, 18 h, read-out: IZ

| Compound | inhibition zone (IZ) (Streptococcus pyogenes [1]) [mm] | inhibition zone (IZ) (Escherichia coli [2]) [mm] | inhibition zone (IZ) (Staphylococcus aureus [3]) [mm] | inhibition zone (IZ) (Salmonella typhimurium [4]) [mm] | MIC (Salmonella typhimurium [5]) [µg/mL] | MIC (Escherichia coli [6]) [µg/mL] | MIC (Staphylococcus aureus [7]) [µg/mL] | MIC (Streptococcus pyogenes [8]) [µg/mL] | zone of inhibition at 30 µg/disc (Escherichia coli [9]) [mm] | zone of inhibition at 30 µg/disc (Staphylococcus aureus [10]) [mm] | zone of inhibition at 30 µg/disc (Salmonella typhimurium [11]) [mm] | zone of inhibition at 30 µg/disc (Streptococcus pyogenes [12]) [mm] |
| --- | --- | --- | --- | --- | --- | --- | --- | --- | --- | --- | --- | --- |
| CC(=O)O[C@H]1CC[C@@]2(C)C(C1)/C(=N/NC(=S)NC1CCCCC1)C[C@H]1[C@@H]3CC[C@H]([C@H](C)CCCC(C)C)[C@@]3(C)CC[C@@H]12 (some centres undefined) | 12.2 | 13.6 | 11.6 | 10.6 | – | – | – | – | – | – | – | – |
| CC(C)CCC[C@@H](C)[C@H]1CC[C@H]2[C@@H]3C/C(=N\NC(=S)NC4CCCCC4)C4C[C@@H](Cl)CC[C@]4(C)[C@H]3CC[C@]12C (some centres undefined) | 10.5 | 11.4 | 11.2 | 11.5 | – | – | – | – | – | – | – | – |
| CC(C)CCC[C@@H](C)[C@H]1CC[C@H]2[C@@H]3C/C(=N\NC(=S)NC4CCCCC4)C4CCCC[C@]4(C)[C@H]3CC[C@]12C (some centres undefined) | 9.8 | 11.6 | 9.6 | 10.6 | – | – | – | – | – | – | – | – |
| CC(=O)O[C@H]1CC[C@@]2(C)C(C1)/C(=N/N=C1\SCC(=O)N1C1CCCCC1)C[C@H]1[C@@H]3CC[C@H]([C@H](C)CCCC(C)C)[C@@]3(C)CC[C@@H]12 (some centres undefined) | 21.6 | 20.8 | 18.8 | 19.2 | 32 (≈ 50 µM) | 32 (≈ 50 µM) | 32 (≈ 50 µM) | 64 (≈ 100 µM) | – | – | – | – |
| CC(C)CCC[C@@H](C)[C@H]1CC[C@H]2[C@@H]3C/C(=N\N=C4/SCC(=O)N4C4CCCCC4)C4C[C@@H](Cl)CC[C@]4(C)[C@H]3CC[C@]12C (some centres undefined) | 21.7 | 22.8 | 20.6 | 19.6 | 32 (≈ 51.9 µM) | 32 (≈ 51.9 µM) | 64 (≈ 104 µM) | 32 (≈ 51.9 µM) | – | – | – | – |
| CC(C)CCC[C@@H](C)[C@H]1CC[C@H]2[C@@H]3C/C(=N\N=C4/SCC(=O)N4C4CCCCC4)C4CCCC[C@]4(C)[C@H]3CC[C@]12C (some centres undefined) | 14.2 | 14 | 13.8 | 13.2 | 512 (≈ 880 µM) | 128 (≈ 220 µM) | 64 (≈ 110 µM) | 128 (≈ 220 µM) | – | – | – | – |
| CC1(C)S[C@@H]2[C@H](NC(=O)[C@H](N)c3ccc(O)cc3)C(=O)N2[C@H]1C(=O)O [AMOXICILLIN] | – | – | – | – | 32 (≈ 87.6 µM) | 32 (≈ 87.6 µM) | 32 (≈ 87.6 µM) | 32 (≈ 87.6 µM) | 20 | 17 | 17.2 | 18.2 |
